Test in all cases: NCI-60 cell line screen, 48 h
Assay [1] has as its system EKVX NSCLC.
Assay [2] has as its system HCT-15 colon.
The subject of assay [3] is HOP-62 NSCLC.
Assay [4] has as its system HT29 colon.
The subject of assay [5] is OVCAR-4 ovarian.
Assay [6] relates to OVCAR-8 ovarian.
Assay [7] concerns SK-MEL-28 melanoma.
Assay [8] has as its system SK-OV-3 ovarian.
Assay [9] deals with SR leukemia.
Assay [10] deals with UACC-62 melanoma.

Structures are written as SMILES.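 Dose response: 5 concentrations. Exposure: 48 h. Format: 96-well plates. Endpoint: linear interpolation; highest concentration if not reached. GI50 marks 50% less growth. TGI is the concentration that stops growth completely.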

In the case of `Oc1ccc2ccccc2c1C1NN=C(c2ccccc2)S1` (stereo not given), the GI50 is 633 nM in assay [1]; 399 nM in assay [2]; 454 nM in assay [3]; 724 nM in assay [4]; 515 nM in assay [5]; 439 nM in assay [6]. Besides, the GI50 is 799 nM in [7], 519 nM in assay [8], 473 nM in [9] and 362 nM in assay [10]. The TGI was over 94700 nM in assay [1]; over 50800 nM in assay [2]; 31700 nM in assay [3]; 40000 nM in assay [4]; over 71300 nM in [5]; over 100000 nM in assay [6]. Besides, the TGI in [7] is 97800 nM; in assay [8] it was 20500 nM; in [9] it was over 100000 nM; in assay [10], 6300 nM.

The values are drawn from PubChem BioAssay (NCI).
